Source: patent publication US20210061872A1 (PROTAGONIST THERAPEUTICS, published 2021)

Columns and labels:
PV mice = conditions: cited from earlier work
[1] = tested on: patients with phlebotomy-dependent PV and splenomegaly; conditions: through week 32; 6 events with BAT; cited from earlier work
human ferroportin = target: T1, human ferroportin (Homo sapiens, UniProt Q9NP59); experiment: ferroportin-GFP internalization/degradation assay in HEK293 cells; format: cell-based; conditions: read-out: Potency EC50
T1 construct: expressed in transfected cells
T1 sequence (Q9NP59 1-571): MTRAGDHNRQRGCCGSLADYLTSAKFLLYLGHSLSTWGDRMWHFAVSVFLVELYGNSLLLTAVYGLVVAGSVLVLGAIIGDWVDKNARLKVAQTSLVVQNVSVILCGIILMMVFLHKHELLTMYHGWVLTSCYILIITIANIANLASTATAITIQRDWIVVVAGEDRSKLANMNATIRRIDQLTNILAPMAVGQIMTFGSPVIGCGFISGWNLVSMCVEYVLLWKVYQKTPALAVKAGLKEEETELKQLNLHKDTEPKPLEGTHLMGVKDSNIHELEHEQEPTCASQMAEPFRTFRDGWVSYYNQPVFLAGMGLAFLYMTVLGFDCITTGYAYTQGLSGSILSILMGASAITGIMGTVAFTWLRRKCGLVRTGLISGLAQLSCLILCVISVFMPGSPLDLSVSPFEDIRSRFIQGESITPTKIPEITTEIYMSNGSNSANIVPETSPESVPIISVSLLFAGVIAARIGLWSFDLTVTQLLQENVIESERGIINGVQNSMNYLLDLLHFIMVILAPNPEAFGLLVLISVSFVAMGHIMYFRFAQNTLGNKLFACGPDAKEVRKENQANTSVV

healthy subjects = experiment: Phase I single dose study; format: in vivo, human; conditions: 62 healthy subjects
Source text: Compound A is a hepcidin mimetic agent in clinical studies for multiple blood disorders.

Cynomolgus monkeys [2] = experiment: repeat-dose study, 13 weekly SC doses, limiting erythropoiesis; format: in vivo
Source text: A cohort of animals (4/sex/group) were sacrificed on Day 92 (Main), and the remaining animals (2/sex/group) were sacrificed on Day 120 following a 35-day recovery period (Recovery).

PV patients = experiment: Phase 2 study in phlebotomy-requiring Polycythemia vera
Source text: Eligible patients were enrolled in the 28-week dose finding part of the Phase 2 trial. […] Body iron status was quantified by monitoring serum ferritin, serum iron, transferrin saturation (TSAT), mean corpuscular volume (MCV) and mean corpuscular hemoglobin (MCH).

Cynomolgus monkeys [3] = experiment: PK-PD experiment, serum iron (Cobas IRON2); format: in vivo
Method: Iron content in plasma/serum was measured using a colorimetric assay on the Cobas c 111 according to instructions from the manufacturer of the assay (assay: IRON2: ACN 661).

[4] = target: T2, human ferroportin (SLC40A1) fused in frame with GFP, stably expressed on HEK293 cells (human, UniProt Q9NP59 1-571); experiment: cell-based or functional assay
T2 sequence (looked up): T1 sequence (Q9NP59 1-571)

[5] = SC doses of 10 mg to 80 mg, various times after dosing

In the case of “minihepcidin: hepcidin mimetic administered to PV mice in Casu et al., Blood 2016 (DTHFPICIF)”, the hematocrit (PV mice) is listed as “normalizes hematocrit” and the splenomegaly (PV mice) is listed as “significantly reduces splenomegaly”.

In the case of N#CC[C@H](C1CCCC1)n1cc(-c2ncnc3[nH]ccc23)cn1 [ruxolitinib], the thromboembolic events [1] is given as 1 event.

With CC[C@@H](C)[C@@H](NC(=O)[C@H](N)Cc1ccccc1)C(=O)N[C@H](CS)C(=O)N[C@@H](C(=O)N1CCC[C@@H]1C(=O)N[C@H](Cc1ccccc1)C(=O)N[C@H](Cc1c[nH]cn1)C(=O)N[C@@H](C(=O)N[C@H](CC(=O)O)C(N)=O)[C@H](C)O)[C@H](C)CC [RI-Mini Hepcidin, Hy-DPhe-DIle-DCys-DIle-DPro-DPhe-DHis-DThr-DAsp-NH2] the EC50 (human ferroportin) was > 10 µM.

In the case of CCCCCCCCCCCCCCCC(=O)N[C@@H](CCC(=O)NCCCC[C@@H]1NC(=O)[C@H]([C@@H](C)CC)NC(=O)[C@@H](NC(=O)[C@@H]2CCCN2C(=O)[C@H](Cc2ccccc2)NC(=O)[C@H](Cc2c[nH]cn2)NC(=O)[C@@H](NC(=O)[C@H](CC(=O)O)NC(=O)CC(C)C)[C@@H](C)O)CSSC[C@@H](C(=O)N[C@@H](CCCCN)C(N)=O)NC(=O)CNC(=O)[C@H](CCCCN)NC(=O)[C@H](CO)NC(=O)[C@H](CCCNC(=N)N)NC(=O)[C@@H]2CCCN2C(=O)[C@H](CCC(=O)O)NC(=O)[C@H](Cc2ccccc2)NC1=O)C(=O)O [Compound A], the adverse events (healthy subjects) is reported as “without significant adverse events”, the platelets (Cynomolgus monkeys [2]; 6 mg/kg/dose, male and female, FIG. 5) is reported as “significantly elevated levels of platelets” and the “total bilirubin (tBili)” value (Cynomolgus monkeys [2]; at ≥2 mg/kg/day, treatment period, FIG. 4) is reported as “increase in total bilirubin”. The “bone marrow (femur, sternum) findings” value (Cynomolgus monkeys [2]; at ≥2 mg/kg/dose) was “hematopoietic hypercellularity occurred in bone marrow”, the “liver and spleen findings” value (Cynomolgus monkeys [2]; at ≥2 mg/kg/dose) was “extramedullary hematopoiesis and hemosiderin deposition was observed in the liver and spleen” and the “most frequent adverse events” value (PV patients; 10-80 mg SC weekly) was “injection site reaction (ISR) reported by three patients”. The tolerability (PV patients; 10-80 mg SC weekly) was “well tolerated”, the “plasma concentrations of Compound A, lower end of range (below detectable)” value (PV patients; [5]) was < 2 ng/mL and the “plasma concentrations of Compound A, upper end of range” value (PV patients; [5]) was 866 ng/mL. The platelet counts (PV patients; over the course of treatment, FIG. 14) was “remained generally steady”, the leukocyte count (PV patients; over the course of treatment, FIG. 16) was “remained generally steady” and the “grade of most injection site reactions” value (PV patients; transient, no patient discontinued) was 1-2 grade.

With “Isovaleric acid-DTHFPCIKF(K(PEG11-Palm))PRSK[Sar]CK-NH2 [Compound B]” the “time of maximal serum iron reduction” value (Cynomolgus monkeys [3]; 2.93 mg/kg SC) was “about 12 hour”, the “serum iron reduction, lower than pre-dose levels” value (Cynomolgus monkeys [3]; 2.93 mg/kg SC, at about 12 hour) was 12 fold and the “serum concentrations having maximum effect on serum iron” value (Cynomolgus monkeys [3]; SC single dose) was 50 to 125 ng/mL. The “serum concentrations that were effective on serum iron” value (Cynomolgus monkeys [3]; SC single dose) was 25 to 125 ng/mL.

B1: Mini-Hepcidin (peptide)
peptide: H-DTHFPICIF-NH2
For B1, the “Potency EC50 (nM); ferroportin internalization/degradation, decrease in GFP fluorescence of ferroportin-GFP HEK293 cells” value [4] was 712 nM.

B2: RI-Mini Hepcidin (peptide)
peptide: FICIPFHTD
modifications: all residues are D-amino acids (Hy-DPhe-DIle-DCys-DIle-DPro-DPhe-DHis-DThr-DAsp-NH2); C-terminal amide
In the case of B2, the “Potency EC50 (nM); ferroportin internalization/degradation, decrease in GFP fluorescence of ferroportin-GFP HEK293 cells” value [4] is reported as > 10000 nM.
